# Measurements reported in patent publication US12227500B2, “Substituted pyrrolo[2,3-b]pyridines for suppressing toxic endoplasmic reticulum stress” (THE TRUSTEES OF COLUMBIA UNIVERSITY IN THE CITY OF NEW YORK, priority 2018, dated 2025).
# Key:
# Assay in all cases: Radiolabeled ATP kinase assay, panel of 371 kinases (Table S6)
# Format in all cases: biochemical
# [1] = molecular target: T1, panel of 371 human kinases (Homo sapiens, UniProt Q9H792); conditions: PEAK1; 0.1 μM; 10 μM ATP; read-out: % Enzyme Activity (relative to DMSO controls)
# T1 construct: purchased Reaction Biology Corp
# Description: (§1) ; FIG. 38C). […]. Further targeted analyses, such as genetic knock-down or knock-out, may be warranted to parse the role of these additional kinases in our model of neurodegeneration.
# [2] = molecular target: T2, panel of 371 human kinases (Homo sapiens, UniProt P08631); conditions: HCK; 0.1 μM; 10 μM ATP; read-out: % Enzyme Activity (relative to DMSO controls)
# T2 construct: purchased Reaction Biology Corp
# Description: as §1
# [3] = molecular target: T3, panel of 371 human kinases (Homo sapiens, UniProt Q14289); conditions: PYK2; 0.1 μM; 10 μM ATP; read-out: % Enzyme Activity (relative to DMSO controls)
# T3 construct: purchased Reaction Biology Corp
# Description: as §1
# [4] = molecular target: T4, panel of 371 human kinases (Homo sapiens, UniProt Q96GD4); conditions: Aurora B; 0.1 μM; 10 μM ATP; read-out: % Enzyme Activity (relative to DMSO controls)
# T4 construct: purchased Reaction Biology Corp
# Description: as §1
# [5] = molecular target: T5, panel of 371 human kinases (Homo sapiens, UniProt P08581); conditions: c-MET; 0.1 μM; 10 μM ATP; read-out: % Enzyme Activity (relative to DMSO controls)
# T5 construct: purchased Reaction Biology Corp
# Description: as §1
# [6] = molecular target: T6, panel of 371 human kinases (Homo sapiens, UniProt Q96PF2); conditions: TSSK2; 0.1 μM; 10 μM ATP; read-out: % Enzyme Activity (relative to DMSO controls)
# T6 construct: purchased Reaction Biology Corp
# Description: as §1
# [7] = molecular target: T7, panel of 371 human kinases (Homo sapiens, UniProt Q16566); conditions: CAMK4; 0.1 μM; 10 μM ATP; read-out: % Enzyme Activity (relative to DMSO controls)
# T7 construct: purchased Reaction Biology Corp
# Description: as §1
# [8] = molecular target: T8, panel of 371 human kinases (Homo sapiens, UniProt P31749); conditions: AKT1; 0.1 μM; 10 μM ATP; read-out: % Enzyme Activity (relative to DMSO controls)
# T8 construct: purchased Reaction Biology Corp
# Description: as §1
# [9] = molecular target: T9, panel of 371 human kinases (Homo sapiens, UniProt P51956); conditions: NEK3; 0.1 μM; 10 μM ATP; read-out: % Enzyme Activity (relative to DMSO controls)
# T9 construct: purchased Reaction Biology Corp
# Description: as §1
# [10] = molecular target: T10, panel of 371 human kinases (Homo sapiens, UniProt P06239); conditions: LCK; 0.1 μM; 10 μM ATP; read-out: % Enzyme Activity (relative to DMSO controls)
# T10 construct: purchased Reaction Biology Corp
# Description: as §1
# [11] = molecular target: T11, panel of 371 human kinases (Homo sapiens, UniProt P35916); conditions: FLT4/VEGFR3; 0.1 μM; 10 μM ATP; read-out: % Enzyme Activity (relative to DMSO controls)
# T11 construct: purchased Reaction Biology Corp
# Description: as §1
# [12] = molecular target: T12, panel of 371 human kinases (Homo sapiens, UniProt Q14012); conditions: CAMK1a; 0.1 μM; 10 μM ATP; read-out: % Enzyme Activity (relative to DMSO controls)
# T12 construct: purchased Reaction Biology Corp
# Description: as §1
# [13] = molecular target: T13, panel of 371 human kinases (Homo sapiens, UniProt P42685); conditions: FRK/PTK5; 0.1 μM; 10 μM ATP; read-out: % Enzyme Activity (relative to DMSO controls)
# T13 construct: purchased Reaction Biology Corp
# Description: as §1
# [14] = molecular target: T14, panel of 371 human kinases (Homo sapiens, UniProt O15530); conditions: PDK1/PDPK1; 0.1 μM; 10 μM ATP; read-out: % Enzyme Activity (relative to DMSO controls)
# T14 construct: purchased Reaction Biology Corp
# Description: as §1
# [15] = molecular target: T15, panel of 371 human kinases (Homo sapiens, UniProt Q32MK0); conditions: MYLK3; 0.1 μM; 10 μM ATP; read-out: % Enzyme Activity (relative to DMSO controls)
# T15 construct: purchased Reaction Biology Corp
# Description: as §1
# [16] = molecular target: T16, panel of 371 human kinases (Homo sapiens, UniProt Q9Y4K4); conditions: for remaining activity at 0.1 µM: KHS/MAP4K5, 10 μM ATP, read-out: % Enzyme Activity (relative to DMSO controls)
# T16 construct: purchased Reaction Biology Corp
# Description: as §1
# [17] = molecular target: T17, panel of 371 human kinases (Homo sapiens, UniProt P68400); conditions: CK2a; 0.1 μM; 10 μM ATP; read-out: % Enzyme Activity (relative to DMSO controls)
# T17 construct: purchased Reaction Biology Corp
# Description: as §1
# [18] = molecular target: T18, panel of 371 human kinases (Homo sapiens, UniProt O15111); conditions: IKKa/CHUK; 0.1 μM; 10 μM ATP; read-out: % Enzyme Activity (relative to DMSO controls)
# T18 construct: purchased Reaction Biology Corp
# Description: as §1
# [19] = molecular target: T19, panel of 371 human kinases (Homo sapiens, UniProt Q92630); conditions: DYRK2; 0.1 μM; 10 μM ATP; read-out: % Enzyme Activity (relative to DMSO controls)
# T19 construct: purchased Reaction Biology Corp
# Description: as §1
# [20] = molecular target: T20, panel of 371 human kinases (Homo sapiens, UniProt P21802); conditions: FGFR2; 0.1 μM; 10 μM ATP; read-out: % Enzyme Activity (relative to DMSO controls)
# T20 construct: purchased Reaction Biology Corp
# Description: as §1
# [21] = molecular target: T21, panel of 371 human kinases (Homo sapiens, UniProt Q7L7X3); conditions: TAOK1; 0.1 μM; 10 μM ATP; read-out: % Enzyme Activity (relative to DMSO controls)
# T21 construct: purchased Reaction Biology Corp
# Description: as §1
# [22] = molecular target: T22, panel of 371 human kinases (Homo sapiens, UniProt Q9H4B4); conditions: PLK3; 0.1 μM; 10 μM ATP; read-out: % Enzyme Activity (relative to DMSO controls)
# T22 construct: purchased Reaction Biology Corp
# Description: as §1
# [23] = molecular target: T23, panel of 371 human kinases (Homo sapiens, UniProt P57078); conditions: RIPK4; 0.1 μM; 10 μM ATP; read-out: % Enzyme Activity (relative to DMSO controls)
# T23 construct: purchased Reaction Biology Corp
# Description: as §1
# [24] = molecular target: T24, panel of 371 human kinases (Homo sapiens, UniProt P45985); conditions: MKK4; 0.1 μM; 10 μM ATP; read-out: % Enzyme Activity (relative to DMSO controls)
# T24 construct: purchased Reaction Biology Corp
# Description: as §1
# T16 sequence (Q9Y4K4 whole entry): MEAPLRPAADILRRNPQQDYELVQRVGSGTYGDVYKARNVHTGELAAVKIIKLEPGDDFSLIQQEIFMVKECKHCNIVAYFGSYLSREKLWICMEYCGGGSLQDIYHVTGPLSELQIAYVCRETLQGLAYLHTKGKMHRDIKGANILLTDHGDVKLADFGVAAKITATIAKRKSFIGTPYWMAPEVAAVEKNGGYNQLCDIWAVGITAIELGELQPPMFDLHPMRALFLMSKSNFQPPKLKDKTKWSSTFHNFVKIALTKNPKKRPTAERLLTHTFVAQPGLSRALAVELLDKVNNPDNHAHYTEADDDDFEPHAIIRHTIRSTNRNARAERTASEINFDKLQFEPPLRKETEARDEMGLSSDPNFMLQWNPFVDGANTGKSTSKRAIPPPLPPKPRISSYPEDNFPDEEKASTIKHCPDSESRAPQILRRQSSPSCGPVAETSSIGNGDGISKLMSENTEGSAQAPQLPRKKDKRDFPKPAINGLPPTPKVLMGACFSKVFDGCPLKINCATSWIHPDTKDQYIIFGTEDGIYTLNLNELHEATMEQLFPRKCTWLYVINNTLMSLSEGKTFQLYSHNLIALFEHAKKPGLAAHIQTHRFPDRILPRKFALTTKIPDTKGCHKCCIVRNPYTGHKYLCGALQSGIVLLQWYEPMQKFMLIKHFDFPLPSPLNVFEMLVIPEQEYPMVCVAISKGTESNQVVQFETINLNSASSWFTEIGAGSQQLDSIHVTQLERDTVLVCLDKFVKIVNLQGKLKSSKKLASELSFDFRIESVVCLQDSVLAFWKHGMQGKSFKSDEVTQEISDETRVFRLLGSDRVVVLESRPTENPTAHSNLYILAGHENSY
# T20 sequence (P21802 22-821): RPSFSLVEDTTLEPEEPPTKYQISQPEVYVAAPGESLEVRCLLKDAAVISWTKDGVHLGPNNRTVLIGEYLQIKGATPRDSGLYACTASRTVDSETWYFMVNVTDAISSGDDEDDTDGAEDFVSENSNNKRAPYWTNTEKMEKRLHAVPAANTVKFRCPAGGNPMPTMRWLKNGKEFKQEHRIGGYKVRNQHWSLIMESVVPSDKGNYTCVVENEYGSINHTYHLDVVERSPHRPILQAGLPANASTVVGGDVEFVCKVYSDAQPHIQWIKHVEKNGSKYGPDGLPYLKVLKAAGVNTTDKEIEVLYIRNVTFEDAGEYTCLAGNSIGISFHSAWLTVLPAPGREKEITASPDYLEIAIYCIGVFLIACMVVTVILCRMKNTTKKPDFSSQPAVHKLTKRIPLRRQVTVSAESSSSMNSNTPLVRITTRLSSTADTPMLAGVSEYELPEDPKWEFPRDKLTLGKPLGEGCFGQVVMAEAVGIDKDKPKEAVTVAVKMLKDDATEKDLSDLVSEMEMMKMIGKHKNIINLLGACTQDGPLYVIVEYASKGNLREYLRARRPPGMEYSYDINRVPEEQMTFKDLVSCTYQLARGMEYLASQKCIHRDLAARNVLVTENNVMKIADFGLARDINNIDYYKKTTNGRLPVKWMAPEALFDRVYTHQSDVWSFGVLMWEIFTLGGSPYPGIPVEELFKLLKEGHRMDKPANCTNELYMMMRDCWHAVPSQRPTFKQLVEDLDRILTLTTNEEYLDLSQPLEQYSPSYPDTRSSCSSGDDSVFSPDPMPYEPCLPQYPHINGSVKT
# T6 sequence (Q96PF2 whole entry): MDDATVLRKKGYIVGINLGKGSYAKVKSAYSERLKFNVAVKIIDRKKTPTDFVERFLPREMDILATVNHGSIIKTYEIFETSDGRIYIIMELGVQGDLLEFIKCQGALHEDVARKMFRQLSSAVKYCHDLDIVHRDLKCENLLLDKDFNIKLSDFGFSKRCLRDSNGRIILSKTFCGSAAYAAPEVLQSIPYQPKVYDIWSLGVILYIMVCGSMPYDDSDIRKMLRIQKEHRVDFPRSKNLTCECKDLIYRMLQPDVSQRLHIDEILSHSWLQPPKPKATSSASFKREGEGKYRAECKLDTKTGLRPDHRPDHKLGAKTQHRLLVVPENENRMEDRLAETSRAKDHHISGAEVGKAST
# T7 sequence (Q16566 whole entry): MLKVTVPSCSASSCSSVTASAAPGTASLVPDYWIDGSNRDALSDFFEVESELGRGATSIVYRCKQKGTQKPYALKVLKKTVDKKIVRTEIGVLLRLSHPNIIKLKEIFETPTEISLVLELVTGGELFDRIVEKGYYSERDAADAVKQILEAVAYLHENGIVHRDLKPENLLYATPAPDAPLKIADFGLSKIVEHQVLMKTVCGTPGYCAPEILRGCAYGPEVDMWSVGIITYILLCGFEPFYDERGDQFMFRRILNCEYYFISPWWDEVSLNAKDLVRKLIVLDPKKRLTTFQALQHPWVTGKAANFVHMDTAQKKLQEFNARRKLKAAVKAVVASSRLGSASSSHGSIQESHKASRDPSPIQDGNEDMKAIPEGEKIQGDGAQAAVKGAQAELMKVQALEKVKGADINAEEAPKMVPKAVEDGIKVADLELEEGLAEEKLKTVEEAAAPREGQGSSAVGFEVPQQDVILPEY
# T10 sequence (P06239 whole entry): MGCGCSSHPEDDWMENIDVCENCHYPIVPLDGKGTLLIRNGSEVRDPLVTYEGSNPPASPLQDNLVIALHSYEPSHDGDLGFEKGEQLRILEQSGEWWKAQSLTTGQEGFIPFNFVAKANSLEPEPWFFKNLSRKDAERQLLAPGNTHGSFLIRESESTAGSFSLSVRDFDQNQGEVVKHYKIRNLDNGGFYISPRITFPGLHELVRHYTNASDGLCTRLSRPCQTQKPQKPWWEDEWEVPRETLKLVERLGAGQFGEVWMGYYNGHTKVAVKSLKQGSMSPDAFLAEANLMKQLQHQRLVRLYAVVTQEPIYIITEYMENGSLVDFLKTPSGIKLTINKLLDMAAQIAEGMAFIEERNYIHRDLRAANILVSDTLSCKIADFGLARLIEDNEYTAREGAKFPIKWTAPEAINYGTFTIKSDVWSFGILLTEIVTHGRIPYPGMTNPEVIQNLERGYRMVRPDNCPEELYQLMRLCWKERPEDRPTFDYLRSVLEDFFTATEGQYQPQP
# T4 sequence (Q96GD4 whole entry): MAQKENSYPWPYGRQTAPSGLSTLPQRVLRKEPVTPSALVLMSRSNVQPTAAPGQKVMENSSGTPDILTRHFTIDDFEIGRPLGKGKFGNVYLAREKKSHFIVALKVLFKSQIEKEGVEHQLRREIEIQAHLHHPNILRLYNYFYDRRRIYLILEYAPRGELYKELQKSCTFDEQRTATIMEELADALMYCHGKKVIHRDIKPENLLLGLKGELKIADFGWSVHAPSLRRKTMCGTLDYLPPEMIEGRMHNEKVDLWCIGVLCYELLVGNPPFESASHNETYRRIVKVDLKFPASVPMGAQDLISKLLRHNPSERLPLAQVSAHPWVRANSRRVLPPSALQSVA
# T11 sequence (P35916 25-1363): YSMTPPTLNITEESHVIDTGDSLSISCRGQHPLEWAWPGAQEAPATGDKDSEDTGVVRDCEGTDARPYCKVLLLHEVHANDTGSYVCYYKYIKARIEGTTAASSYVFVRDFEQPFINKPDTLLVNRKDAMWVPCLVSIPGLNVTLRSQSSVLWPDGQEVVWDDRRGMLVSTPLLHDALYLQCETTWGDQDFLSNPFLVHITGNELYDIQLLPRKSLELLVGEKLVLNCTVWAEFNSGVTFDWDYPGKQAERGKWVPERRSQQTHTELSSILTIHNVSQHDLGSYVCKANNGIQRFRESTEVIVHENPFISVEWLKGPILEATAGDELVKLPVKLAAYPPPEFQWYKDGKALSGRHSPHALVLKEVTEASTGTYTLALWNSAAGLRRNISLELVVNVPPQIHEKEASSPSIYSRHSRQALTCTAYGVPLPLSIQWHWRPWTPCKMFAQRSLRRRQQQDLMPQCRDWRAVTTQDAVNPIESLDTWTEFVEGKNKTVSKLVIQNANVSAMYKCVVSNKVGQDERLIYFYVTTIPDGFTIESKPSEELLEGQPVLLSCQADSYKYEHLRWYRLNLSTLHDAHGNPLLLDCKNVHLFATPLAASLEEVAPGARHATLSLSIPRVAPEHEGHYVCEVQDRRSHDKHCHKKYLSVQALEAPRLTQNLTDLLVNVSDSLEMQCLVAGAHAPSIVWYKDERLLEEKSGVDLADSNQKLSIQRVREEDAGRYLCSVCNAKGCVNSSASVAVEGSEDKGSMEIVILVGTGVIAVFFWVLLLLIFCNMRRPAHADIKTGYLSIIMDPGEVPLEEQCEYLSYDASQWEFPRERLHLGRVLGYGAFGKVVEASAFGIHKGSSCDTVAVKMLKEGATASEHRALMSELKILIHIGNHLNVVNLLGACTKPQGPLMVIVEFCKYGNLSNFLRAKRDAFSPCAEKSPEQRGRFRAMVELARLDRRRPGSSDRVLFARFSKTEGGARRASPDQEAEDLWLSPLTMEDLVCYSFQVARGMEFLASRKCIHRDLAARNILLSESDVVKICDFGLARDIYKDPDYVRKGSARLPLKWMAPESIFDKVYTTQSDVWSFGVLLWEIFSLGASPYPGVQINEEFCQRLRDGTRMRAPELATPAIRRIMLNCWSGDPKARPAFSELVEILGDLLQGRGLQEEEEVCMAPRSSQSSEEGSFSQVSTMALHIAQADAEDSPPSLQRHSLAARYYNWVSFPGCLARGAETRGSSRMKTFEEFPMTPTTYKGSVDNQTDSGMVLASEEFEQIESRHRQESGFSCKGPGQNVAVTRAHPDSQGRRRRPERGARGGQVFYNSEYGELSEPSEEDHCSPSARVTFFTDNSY
# T12 sequence (Q14012 whole entry): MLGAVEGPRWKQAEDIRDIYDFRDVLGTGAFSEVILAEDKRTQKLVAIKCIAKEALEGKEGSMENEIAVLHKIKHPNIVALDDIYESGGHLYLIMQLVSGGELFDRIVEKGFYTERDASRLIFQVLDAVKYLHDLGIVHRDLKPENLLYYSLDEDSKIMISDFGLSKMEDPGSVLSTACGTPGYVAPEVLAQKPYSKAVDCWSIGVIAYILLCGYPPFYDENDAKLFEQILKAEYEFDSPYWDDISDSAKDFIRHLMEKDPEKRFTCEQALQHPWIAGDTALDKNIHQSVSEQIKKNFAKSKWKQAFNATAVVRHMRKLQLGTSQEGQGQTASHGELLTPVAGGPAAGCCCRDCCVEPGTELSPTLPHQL
SMILES,remaining activity at 0.1 µM [1] [%],remaining activity at 0.1 µM [2] [%],remaining activity at 0.1 µM [3] [%],remaining activity at 0.1 µM [4] [%],remaining activity at 0.1 µM [5] [%],remaining activity at 0.1 µM [6] [%],remaining activity at 0.1 µM [7] [%],remaining activity at 0.1 µM [8] [%],remaining activity at 0.1 µM [9] [%],remaining activity at 0.1 µM [10] [%],remaining activity at 0.1 µM [11] [%],remaining activity at 0.1 µM [12] [%],remaining activity at 0.1 µM [13] [%],remaining activity at 0.1 µM [14] [%],remaining activity at 0.1 µM [15] [%],remaining activity at 0.1 µM [16] [%],remaining activity at 0.1 µM [17] [%],remaining activity at 0.1 µM [18] [%],remaining activity at 0.1 µM [19] [%],remaining activity at 0.1 µM [20] [%],further results
"CN1CCN(Cc2ccc(-c3cnc4[nH]cc(-c5ccc6[nH]ccc6c5)c4c3)cc2)CC1 [Compound 1, 3-(1H-Indol-5-yl)-5-(4-((4-methylpiperazin-1-yl)methyl)phenyl)-1H-pyrrolo[2,3-b]pyridine, reference compound]",109,110,84.8,103,87.8,115,95.1,97,88.3,94.2,81.7,100,91.1,110,109,31.4,100,96.8,71.7,79.9,remaining activity at 0.1 µM [21]: 78.3%; remaining activity at 0.1 µM [22]: 106%; remaining activity at 0.1 µM [23]: 98.3%; remaining activity at 0.1 µM [24]: 105%
"OCCN1CCN(Cc2ccc(-c3cnc4[nH]cc(-c5cccc(Cl)c5)c4c3)cc2)CC1 [Compound 12k, 2-(4-(4-(3-(3-Chlorophenyl)-1H-pyrrolo[2,3-b]pyridin-5-yl)benzyl)piperazin-1-yl)ethan-1-ol]",101,95.8,89.2,82.6,88.2,108,100,101,91.1,98.8,85.8,121,98.3,92.7,96.7,1.81,110,101,85.6,89.5,fold change in KHS activity following 12k exposure relative to 1 ([16]; 0.025 μM): 17.36 fold; remaining activity at 0.1 µM [21]: 59.8%; remaining activity at 0.1 µM [22]: 103%; remaining activity at 0.1 µM [23]: 98%; remaining activity at 0.1 µM [24]: 110%
